Results published in the NIST ThermoML archive (doi:10.1021/je100522z).
Where “and” joins values, the source holds several entries; their conditions need not be identical. Equal entries are not always repeated.

What was measured:
[1] = 101.33 kPa, Liquid
[2] = molar heat capacity at constant pressure; details: 101.33 kPa, Liquid, Small sample (50 mg) DSC
[3] = excess molar enthalpy (molar enthalpy of mixing); xn = mol fraction of the nth substance listed; details: 101.3 kPa, Liquid, Calvet calorimetry

CCn1cc[n+](C)c1.N#C[S-] [1-ethyl-3-methylimidazolium thiocyanate]
Details	mass density, [1] [kg/m3]	molar heat capacity at constant pressure, [2] [J/K/mol]
283.15 K	–	285
293.15 K	1119.02	287
298.15 K	1115.96	–
303.15 K	1112.91	288
313.15 K	1106.85	290
323.15 K	1100.85	293
333.15 K	1094.91	296
343.15 K	1089.06	300

CCn1cc[n+](C)c1.N#C[S-] [1-ethyl-3-methylimidazolium thiocyanate] + O
[3]
Details	excess molar enthalpy [kcal/mol]
313.14 K, x2 = 0.1503	-0.059
313.14 K, x2 = 0.2483	-0.0865
313.14 K, x2 = 0.2501	-0.0868
313.14 K, x2 = 0.498	-0.101
313.14 K, x2 = 0.4996	-0.101
313.14 K, x2 = 0.7488	-0.0261
313.14 K, x2 = 0.7493	-0.0258
313.14 K, x2 = 0.8994	0.0433
313.14 K, x2 = 0.8996	0.043
333.14 K, x2 = 0.1477	-0.0614
333.14 K, x2 = 0.1479	-0.0609
333.14 K, x2 = 0.25	-0.0887
333.14 K, x2 = 0.2506	-0.0889
333.14 K, x2 = 0.5014	-0.0939
333.14 K, x2 = 0.5016	-0.0942
333.14 K, x2 = 0.6521	-0.0483
333.14 K, x2 = 0.6524	-0.0483
333.14 K, x2 = 0.8965	0.0619
333.14 K, x2 = 0.898	0.0621
348.13 K, x2 = 0.1467	-0.0629
348.13 K, x2 = 0.1516	-0.0652
348.13 K, x2 = 0.2472	-0.0884
348.13 K, x2 = 0.251	-0.0877
348.13 K, x2 = 0.499	-0.087
348.13 K, x2 = 0.4992	-0.0868
348.13 K, x2 = 0.6015	-0.0552
348.13 K, x2 = 0.6029	-0.0545
348.13 K, x2 = 0.8992	0.082
348.13 K, x2 = 0.8993	0.082

CCCCCCn1cc[n+](C)c1.O=S(=O)([O-])C(F)(F)F [1-hexyl-3-methylimidazolium trifluoromethanesulfonate]
[2]
Details	molar heat capacity at constant pressure [J/K/mol]
283.15 K	484
293.15 K	493
303.15 K	500
313.15 K	506
323.15 K	513
333.15 K	516
343.15 K	522

CCCCCCn1cc[n+](C)c1.O=S(=O)([O-])C(F)(F)F [1-hexyl-3-methylimidazolium trifluoromethanesulfonate] + O
[3]
Details	excess molar enthalpy
313.12 K, x2 = 0.3964	0.325 kcal/mol
313.12 K, x2 = 0.3978	0.325 kcal/mol
313.12 K, x2 = 0.6294	0.387 kcal/mol
313.12 K, x2 = 0.6334	0.387 kcal/mol
313.12 K, x2 = 0.8633	0.174 kcal/mol and 0.172 kcal/mol
333.12 K, x2 = 0.3946	0.354 kcal/mol
333.12 K, x2 = 0.3993	0.359 kcal/mol
333.12 K, x2 = 0.6304	0.449 kcal/mol
333.12 K, x2 = 0.8633	0.239 kcal/mol
348.13 K, x2 = 0.3956	0.378 kcal/mol
348.13 K, x2 = 0.3977	0.382 kcal/mol
348.13 K, x2 = 0.6302	0.504 kcal/mol
348.13 K, x2 = 0.635	0.504 kcal/mol
348.13 K, x2 = 0.8633	0.289 kcal/mol

CCCC[P+](CC)(CCCC)CCCC.CCOP(=O)([O-])OCC [tributylethylphosphonium diethylphosphate]
Details	mass density, [1] [kg/m3]	molar heat capacity at constant pressure, [2] [J/K/mol]
283.15 K	–	683
293.15 K	1010.74	706
298.15 K	1007.43	–
303.15 K	1004.1	716
313.15 K	997.42	728
323.15 K	990.87	739
333.15 K	984.33	753
343.15 K	977.79	768

CCCC[P+](CC)(CCCC)CCCC.CCOP(=O)([O-])OCC [tributylethylphosphonium diethylphosphate] + O
[3]
Details	excess molar enthalpy [kcal/mol]
313.11 K, x2 = 0.2619	-0.315
313.11 K, x2 = 0.2622	-0.318
313.11 K, x2 = 0.5134	-0.619
313.11 K, x2 = 0.5174	-0.624
313.11 K, x2 = 0.762	-0.696
313.11 K, x2 = 0.7628	-0.696
333.11 K, x2 = 0.2606	-0.284
333.11 K, x2 = 0.2633	-0.289
333.11 K, x2 = 0.5116	-0.552
333.11 K, x2 = 0.5118	-0.554
333.11 K, x2 = 0.7594	-0.619
333.11 K, x2 = 0.7601	-0.621
348.11 K, x2 = 0.2623	-0.27
348.11 K, x2 = 0.2642	-0.272
348.11 K, x2 = 0.5185	-0.511
348.11 K, x2 = 0.5213	-0.514
348.11 K, x2 = 0.7613	-0.554
348.11 K, x2 = 0.7635	-0.554
